Columns and labels:
[1] = Metabolic stability in human hepatocyte assessed as intrinsic clearance measured per million cells HPLC/UV/MS analysis; type: ADME, cell-based; conditions: hepatocytes, read-out: CLH
[2] = Octanol-water distribution coefficient, logD of the compound at pH 7.4 by RP-HPLC analysis; type: physicochemical
[3] = Efflux ratio of apparent permeability from basolateral to apical side over apical to basolateral side in MDCK-MDR1 cells; type: ADME, cell-based, Canis lupus familiaris; conditions: dog
[4] = target: T1, Melanocortin receptor 4 (Homo sapiens, UniProt P32245); assay: Antagonist activity at human MC4R in CHO cells measured for 24 hrs in presence of alpha-MSH; type: cell-based
T1 sequence (P32245 whole entry): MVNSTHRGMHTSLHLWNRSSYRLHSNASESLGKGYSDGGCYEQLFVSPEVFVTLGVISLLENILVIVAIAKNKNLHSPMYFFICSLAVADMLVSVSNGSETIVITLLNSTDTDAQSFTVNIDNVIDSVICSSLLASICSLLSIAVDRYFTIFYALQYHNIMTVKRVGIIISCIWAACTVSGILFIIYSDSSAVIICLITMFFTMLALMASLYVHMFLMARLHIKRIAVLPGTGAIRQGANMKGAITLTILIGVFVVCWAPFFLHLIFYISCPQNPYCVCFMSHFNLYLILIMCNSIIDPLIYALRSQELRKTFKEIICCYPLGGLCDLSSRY

[5] = Lipophilicity, logD of compound at pH 7.4 by shake flask method; type: physicochemical; conditions: buffer
[6] = target: Voltage-gated inwardly rectifying potassium channel KCNH2 (Homo sapiens, UniProt Q12809); assay: Inhibition of hERG expressed in CHO cells stably at -80 mV holding potential by automated patch clamp method; type: toxicity, cell-based
Voltage-gated inwardly rectifying potassium channel KCNH2, sequence (Q12809 whole entry): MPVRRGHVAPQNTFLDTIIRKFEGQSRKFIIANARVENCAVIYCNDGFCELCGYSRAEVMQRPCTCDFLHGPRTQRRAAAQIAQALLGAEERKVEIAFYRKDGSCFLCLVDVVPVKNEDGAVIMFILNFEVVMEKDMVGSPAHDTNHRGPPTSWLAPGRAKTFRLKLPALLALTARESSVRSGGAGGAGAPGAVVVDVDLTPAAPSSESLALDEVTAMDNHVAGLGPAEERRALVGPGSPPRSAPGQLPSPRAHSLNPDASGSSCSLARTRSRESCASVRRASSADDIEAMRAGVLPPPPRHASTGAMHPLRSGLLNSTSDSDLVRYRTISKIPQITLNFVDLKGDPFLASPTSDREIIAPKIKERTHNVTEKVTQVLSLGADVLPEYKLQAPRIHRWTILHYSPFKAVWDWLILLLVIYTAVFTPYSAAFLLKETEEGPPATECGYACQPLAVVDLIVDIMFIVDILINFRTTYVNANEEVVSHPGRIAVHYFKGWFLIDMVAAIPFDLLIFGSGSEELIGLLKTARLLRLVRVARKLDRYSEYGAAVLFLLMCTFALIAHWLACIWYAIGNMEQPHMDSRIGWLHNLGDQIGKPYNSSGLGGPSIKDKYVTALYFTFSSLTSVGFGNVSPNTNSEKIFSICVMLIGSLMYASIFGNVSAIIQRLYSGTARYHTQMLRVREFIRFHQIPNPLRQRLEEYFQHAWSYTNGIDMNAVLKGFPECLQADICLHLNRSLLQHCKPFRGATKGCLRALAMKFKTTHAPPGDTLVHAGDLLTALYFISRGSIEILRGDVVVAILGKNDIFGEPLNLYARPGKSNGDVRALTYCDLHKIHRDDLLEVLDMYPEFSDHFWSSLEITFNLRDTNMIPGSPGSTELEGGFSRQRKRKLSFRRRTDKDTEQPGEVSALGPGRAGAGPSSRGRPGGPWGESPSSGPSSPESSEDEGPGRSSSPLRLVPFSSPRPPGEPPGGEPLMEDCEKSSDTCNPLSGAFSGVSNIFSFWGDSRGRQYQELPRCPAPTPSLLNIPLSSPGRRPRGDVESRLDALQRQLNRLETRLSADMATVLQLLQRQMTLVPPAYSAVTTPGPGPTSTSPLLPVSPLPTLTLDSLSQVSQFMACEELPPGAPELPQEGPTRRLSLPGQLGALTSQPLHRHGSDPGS

[7] = Metabolic stability in human hepatocyte assessed as intrinsic clearance measured per 10^6 cells HPLC/UV/MS analysis; type: ADME, cell-based; conditions: hepatocytes, read-out: CLH
[8] = target: Cytochrome P450 3A (Homo sapiens, UniProt P08684+P20815+Q9HB55+P24462); assay: Time dependent inhibition of CYP3A (unknown origin) at 10 uM relative to control; type: ADME, protein assay
[9] = target: T1, Melanocortin receptor 4; assay: Antagonist activity at human MC4R in CHO cells measured for 24 hrs; type: cell-based
[10] = target: T1, Melanocortin receptor 4; assay: Antagonist activity at human MC4R expressed in CHO cells assessed as decrease in alpha-MSH induced cAMP level incubated for 1 hr by microplate reader analysis; type: functional, cell-based

Structure (SMILES): COc1cc(CC(=O)N2CC[C@H](Nc3ccc(-c4nc(C(F)(F)F)n(C)n4)c(C)n3)C2)cc(OC)c1
- hepatocyte CLint [1]: 34 µL/min/1e6 cells
- logD [2]: 3.6

Structure (SMILES): COc1cc([C@@H](C)C(=O)N2CC[C@H](Nc3ccc(-c4nc(C(F)(F)F)n(C)n4)c(C)n3)C2)c(F)cn1
- hepatocyte CLint [1]: 15 µL/min/1e6 cells
- logD [2]: 4.2
- Ratio [3]: 6.1

Structure (SMILES): COc1cc([C@@H](C)C(=O)N2CC[C@@]3(CCc4cc(-c5nc(C(F)F)n(C)n5)c(C)nc4N3)C2)c(F)cn1
- hepatocyte CLint [1]: 11 µL/min/1e6 cells
- Ki [4]: 0.49 nM
- logD [5]: 3.2
- Ratio [3]: 8.7

Structure (SMILES): COc1ccc2nc(N[C@H]3CCN(C(=O)Cc4cc(F)cc(F)c4)C3)c(C)cc2c1
- Ki [4]: 910 nM

Structure (SMILES): [2H]C([2H])([2H])n1nc(-c2ccc(N[C@H]3CCN(C(=O)[C@H](C)c4cc(OC)ncc4F)C3)nc2C)nc1C(F)F
- IC50 [6]: 28000 nM
- hepatocyte CLint [7]: 18 µL/min/1e6 cells

Structure (SMILES): COc1cc([C@@H](C)C(=O)N2CC[C@H](Nc3ccc(-c4nc(C(F)F)n(C)n4)c(C)n3)C2)c(F)cn1
- IC50 [6]: 25000 nM
- hepatocyte CLint [1]: 15 µL/min/1e6 cells
- K [8]: 0.015 min⁻¹
- hepatocyte CLint [7]: 15 µL/min/1e6 cells
- logD [2]: 3.4

Structure (SMILES): COc1ccc2nc(N(C(=O)Cc3cc(F)cc(F)c3)[C@H]3CCNC3)ccc2c1
- IC50 [9]: 3.8 nM

Structure (SMILES): Cc1nc(N[C@H]2CCN(C(=O)Cc3ccc(F)cc3)C2)ccc1-c1nc(C(F)(F)F)n(C)n1
- IC50 [6]: 78000 nM
- IC50 [9]: 210 nM
- K [8]: 0.006 min⁻¹
- hepatocyte CLint [7]: 20 µL/min/1e6 cells
- Ki [4]: 5.5 nM
- Ratio [3]: 6.1

Structure (SMILES): COc1cc([C@@H](C)C(=O)N2CC[C@H](Nc3ccc(-c4n[nH]c(C(F)F)n4)c(C)n3)C2)c(F)cn1
- IC50 [6]: 19000 nM
- hepatocyte CLint [7]: 7.5 µL/min/1e6 cells
- Ki [4]: 62 nM

Structure (SMILES): COc1cc([C@@H](C)C(=O)N2CC[C@H](Nc3ccc(-c4ncccn4)c(C)n3)C2)c(F)cn1
- hepatocyte CLint [1]: 7.9 µL/min/1e6 cells
- Ki [4]: 6.4 nM
- logD [5]: 2.6
- Ratio [3]: 4.9

Structure (SMILES): COc1cc(CC(=O)N2CC[C@H](Nc3ccc(-c4nc(C(F)F)n(C)n4)c(C)n3)C2)ccn1
- hepatocyte CLint [1]: 7.1 µL/min/1e6 cells
- Ki [4]: 27 nM

Structure (SMILES): Cc1nc2c(cc1-c1cnn(C)c1)CC1(CCN(C(=O)Cc3ccc(F)cc3)C1)N2 (racemic)
- IC50 [9]: 20000 nM
- logD [2]: 1.9
- Ki [4]: > 2200 nM
- Ratio [3]: 34

Structure (SMILES): Cc1nc(N[C@H]2CCN(C(=O)Cc3ccc(F)cc3)C2)ccc1-c1ncn(C)n1
- IC50 [9]: 240 nM
- K [8]: 0.007 min⁻¹
- hepatocyte CLint [7]: 4.5 µL/min/1e6 cells
- Ki [4]: 19 nM
- Ratio [3]: 19

Structure (SMILES): COc1ccc2nc(N[C@H]3CCN(C(=O)Cc4cc(F)cc(F)c4)C3)ccc2c1
- IC50 [10]: 360 nM
- IC50 [6]: 360 nM
- IC50 [9]: 7.8 nM
- K [8]: 0.61 min⁻¹
- hepatocyte CLint [7]: 28 µL/min/1e6 cells
- Ki [4]: 0.62 nM
- Ratio [3]: 8.6

Structure (SMILES): COc1cc([C@@H](C)C(=O)N2CC[C@@]3(CCc4cc(-c5nc(C(F)(F)F)n(C)n5)c(C)nc4N3)C2)c(F)cn1
- hepatocyte CLint [1]: 12 µL/min/1e6 cells
- IC50 [9]: 8.4 nM
- Ki [4]: 0.45 nM
- Ratio [3]: 4.8

Structure (SMILES): Cc1nc2c(cc1-c1cnn(C)c1)CC[C@@]1(CCN(C(=O)Cc3ccc(F)cc3)C1)N2
- hepatocyte CLint [1]: 6.5 µL/min/1e6 cells
- IC50 [9]: 39 nM
- Ki [4]: 0.6 nM
- logD [5]: 2.6
- Ratio [3]: 18

Structure (SMILES): COc1cc([C@@H](C)C(=O)N2CC[C@H](Nc3ccc(-c4nc(C(F)F)n(C)n4)c(C)n3)C2)ccn1
- hepatocyte CLint [1]: 10 µL/min/1e6 cells
- Ki [4]: 1.4 nM
- logD [5]: 2.7
- Ratio [3]: 16

Structure (SMILES): Cc1nc2c(cc1-c1cnn(C)c1)OC[C@@]1(CCN(C(=O)Cc3ccc(F)cc3)C1)N2
- hepatocyte CLint [1]: 4.9 µL/min/1e6 cells
- logD [2]: 2.4

From ChEMBL document CHEMBL5316345, “Discovery of the Potent and Selective MC4R Antagonist PF-07258669 for the Potential Treatment of Appetite Loss” (J Med Chem, 2023)
